Experimental data as given in ChEMBL document CHEMBL3351884, “Semi-synthesis of oxygenated dolabellane diterpenes with highly in vitro anti-HIV-1 activity” (Bioorg Med Chem Lett, 2014).

Columns and labels:
[1] = Cytotoxicity against human MT2 cells after 4 to 5 days by MTT assay; format: cell-based
[2] = Selectivity index, ratio of CC50 for human MT2 cells to EC50 for X4 tropic HIV1 3B infected in human MT2 cells; format: toxicity, cell-based; conditions: read-out: Ratio CC50/EC50
[3] = test system: Human immunodeficiency virus 1; test: Antiviral activity against X4 tropic HIV1 3B infected in human MT2 cells assessed as protection against virus-induced cytopathic effect after 2 to 3 days by MTT assay; format: functional, organism-based; conditions: Human immunodeficiency virus 1, 3B

For `CC(C)=C1CC[C@@]2(C)C/C=C(\C)CC/C=C(\C)CC[C@H]12`, the CC50 [1] was 1830 µM, the selectivity ratio [2] was 8.7 and the EC50 [3] was 210 µM.

With `CC(C)=C1C(=O)C[C@@]2(C)C[C@@H]3O[C@@]3(C)CC[C@@H]3O[C@@]3(C)CC[C@H]12` the CC50 [1] was 1690 µM, the selectivity ratio [2] was 2320 and the EC50 [3] was 0.73 µM.

`C=C1CC[C@@H]2C(=C(C)C)C(=O)C[C@@]2(C)C[C@@H](O)[C@](C)(O)CC[C@@H]1O` gave a CC50 [1] of 920 µM, a selectivity ratio [2] of 236 and an EC50 [3] of 3.9 µM.

In the case of `CC(C)=C1C(=O)C[C@@]2(C)C/C=C(\CO)CC/C=C(\C)CC[C@H]12`, the CC50 [1] is reported as 980 µM, the selectivity ratio [2] is reported as 1420 and the EC50 [3] is reported as 0.69 µM.

Compound `C[C@H]1/C=C/[C@@]2(C)CC[C@@H](C(C)(C)O)[C@@H]2[C@@H](O)C[C@@](C)(O)/C=C\C1` has a CC50 [1] of 1130 µM, a selectivity ratio [2] of 184 and an EC50 [3] of 6.16 µM.

In the case of `CC(C)=C1C(=O)C[C@@]2(C)C/C=C(\C)CC/C=C(\C)CC[C@H]12` [DOLABELLANE], the CC50 [1] is reported as 2570 µM, the selectivity ratio [2] is reported as 13.5 and the EC50 [3] is reported as 190 µM.

`Cc1ccnc2c1NC(=O)c1cccnc1N2C1CC1` [NEVIRAPINE] gave a CC50 [1] of 320 µM.
